This note sets out measurements from US20250232831A1, “METHOD FOR PREDICTING CELL MEMBRANE PERMEABILITY OF CYCLIC PEPTIDE” (FUJIFILM Corporation, priority 2022, published 2025).

The series in a line: Evaluation of cell membrane permeability (permeation test, permeability coefficient Papp). In kind it is in vitro ADME. The conditions noted are these: dog.

Where two headings read alike, the source gives them in different places. Where a SMILES comes first, the peptide text is derived from it. Bridges are numbered along the chain shown (N, C = ends). [ ]: non-standard residue; d: D form. The star is where a group is joined. NMeL = CN[C@@H](CC(C)C)C(=O)O; hCys = N[C@@H](CCS)C(=O)O; NMeA = CN[C@@H](C)C(=O)O; Piperidide = C1CCN(*)CC1; dNMeA = CN[C@H](C)C(=O)O

Procedure: 300 μL of MDCK II cells (ECACC standard cell line) at a density of 1.0×10^6 cells/mL were seeded in an insert (dedicated for a 24-well plate, pore diameter: 3.0 μm, manufactured by Corning Incorporated), and cultured at 37° C. in a 5% CO2 environment. After 3 days, the electric resistance value of the cell layer (measuring device: Millicell (registered trademark) ERS-2 (manufactured by Millipore Corporation), electrode: ENDOHM-6 (manufactured by WPI, Inc.)) was measured, and it was confirmed that the cell layer had high barrier properties (>100 (2 Ω·cm^2).
The insert was washed by being immersed in a Hank's Balanced Salt Solution (HBSS) (phenol red-free), 200 μL of a sample prepared at 10 μmol/L/HBSS was added thereto, and the insert was allowed to stand in a low-adsorption 24-well plate containing 900 μL of HBSS (37° C., 5% CO2). After 2 hours, each liquid of the upper layer (apical) and the lower layer (basal) of the insert (10 μL for apical and 500 μL for basal) was recovered. After testing, no leakage was confirmed with Lucifer Yellow, which is a non-permeable fluorescent dye.
The device used was LC/MS/MS (triple quadrupole type). […]
Based on the calculation expression shown in the following expression, a permeability coefficient Papp, which represents the membrane permeability, was calculated from each quantitative value. […]

The compound `CC(C)C[C@@H]1NC(=O)[C@H](C)N(C)C(=O)[C@@H](C)N(C)C(=O)[C@H](CC(C)C)N(C)C(=O)[C@H](CC(C)C)N(C)C(=O)[C@H](CC(C)C)NC(=O)[C@H](CC(C)C)N(C)C(=O)CSCC[C@@H](C(=O)N2CCCCC2)NC(=O)[C@H](C)N(C)C(=O)[C@H](C)N(C)C1=O` [Compound 1] ({CH2CO}-[NMeL]L[NMeL][NMeL][dNMeA][NMeA]L[NMeA][NMeA][hCys]-Piperidide; thioether N-10) had a Papp A→B at 2 h, 10 μmol/L (MDCK) of 1.1 ×10⁻⁶ cm/s. For `CC(C)C[C@@H]1NC(=O)[C@H](CC(C)C)N(C)C(=O)CSCC[C@@H](C(=O)N2CCCCC2)NC(=O)[C@H](C)N(C)C(=O)[C@@H]2CCCN2C(=O)[C@H](CC(C)C)N(C)C(=O)[C@H](C)NC(=O)[C@H](C)N(C)C(=O)[C@H](CC(C)C)N(C)C(=O)[C@H](CC(C)C)N(C)C1=O` [Compound 2] ({CH2CO}-[NMeL]L[NMeL][NMeL][NMeA]A[NMeL]P[NMeA][hCys]-Piperidide; thioether N-10), under “MDCK II cells, 10 μmol/L sample in HBSS, 2 hours, 37° C., apical to basal, read-out: Cell membrane permeability Papp”, the Papp A→B at 2 h, 10 μmol/L stood at 0.04 ×10⁻⁶ cm/s.
